Source: patent publication US4021574A, “Antidandruff compositions containing 9-(4-lower alkoxy-2,3,6-trilower-alkylphenyl)-3,7-dimethyl-nona-2,4,6,8-tetraen-1-o ic acid lower alkyl amides” (Hoffmann-La Roche Inc., priority 1974, dated 1977)

Tests used:
[1] = LD50 s.c. in the mouse; settings: in vivo, sc
[2] = tested on: corneocytes on the scalp; experiment: Antidandruff activity: number of corneocytes on the scalp of male volunteers; assay type: in vivo, human (male volunteers)
Experimental: Dermatology, Vol. 53, p. 107 (1969). Each volunteer was treated by applying to the scalp 15 ml. of 0.1% by weight solution thereof daily for seven days. The number of corneocytes on the scalp of each subject was determined one day before treatment began and 1 day after termination of treatment.

CCNC(=O)/C=C(C)/C=C/C=C(C)/C=C/c1c(C)cc(OC)c(C)c1C [9-(4-methoxy-2,3,6-trimethylphenyl)-3,7-dimethyl-nona-2,4,6,8-tetraen-1-oic acid ethyl amide]
LD50 [1]: > 4000 mg/kg
Number of Corneocytes, one day post treatment ([2]; Volunteer No. 1, 15 ml of 0.1% by weight solution on scalp daily for seven days, one day pre-treatment: 2100): 1400
Number of Corneocytes, one day post treatment ([2]; Volunteer No. 2, 15 ml of 0.1% by weight solution on scalp daily for seven days, one day pre-treatment: 5100): 1500
Number of Corneocytes, one day post treatment ([2]; Volunteer No. 3, 15 ml of 0.1% by weight solution on scalp daily for seven days, one day pre-treatment: 3250): 1600
Number of Corneocytes, one day post treatment ([2]; Volunteer No. 4, 15 ml of 0.1% by weight solution on scalp daily for seven days, one day pre-treatment: 1900): 1600
decline in number of corneocytes (average) ([2]; four volunteers, one day post treatment vs one day pre-treatment, 15 ml of 0.1% by weight solution daily for seven days): 50%
Number of Corneocytes, one day post treatment, Total ([2]; total of four volunteers, 15 ml of 0.1% by weight solution on scalp daily for seven days, one day pre-treatment total: 12350): 6100
